Results on 19 compounds are retold here after patent publication US20140005163A1 (NOVARTIS AG, priority 2010, published 2014).

≈ marks a conversion by molar mass, not a printed value. Where only a bound is given, the exact number is not on record here.

The nature of one data set: Solubility at pH 6.8. The class given is physicochemical. The following applies: pH 6.8, aqueous buffer, thermodynamic from solid; read-out: solubility. In short, it runs like this:
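Following the procedure of Zhou et al. (2007), compound solubility was determined at pH 6.8.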

Another data set addresses T1, PI3K alpha (Homo sapiens, UniProt P42336).
T1 construct: p85(iSH2) fusion partner (see partner chain) (N); His tag (C); made in house; host or cells: baculovirus; Tn5 (Trichoplusia ni) or TiniPro insect cells
The data set can be described thus: PI3K alpha kinase assay (Kinase-Glo luminescence). The class given is biochemical. The essentials:
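Enzyme 10 nM PI3Kα EMV B1075; ATP 1 μM; PI 10 μg/mL; Tris-HCl pH 7.5 10 mM, MgCl2 3 mM, NaCl 50 mM, CHAPS 0.05%, DTT 1 mM; 60 min RT; Kinase-Glo luminescence; 4-parameter IC50 fit, 8 concentrations, single points.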

T1 sequence (P42336 with tags, fused parts or gaps limits assumed): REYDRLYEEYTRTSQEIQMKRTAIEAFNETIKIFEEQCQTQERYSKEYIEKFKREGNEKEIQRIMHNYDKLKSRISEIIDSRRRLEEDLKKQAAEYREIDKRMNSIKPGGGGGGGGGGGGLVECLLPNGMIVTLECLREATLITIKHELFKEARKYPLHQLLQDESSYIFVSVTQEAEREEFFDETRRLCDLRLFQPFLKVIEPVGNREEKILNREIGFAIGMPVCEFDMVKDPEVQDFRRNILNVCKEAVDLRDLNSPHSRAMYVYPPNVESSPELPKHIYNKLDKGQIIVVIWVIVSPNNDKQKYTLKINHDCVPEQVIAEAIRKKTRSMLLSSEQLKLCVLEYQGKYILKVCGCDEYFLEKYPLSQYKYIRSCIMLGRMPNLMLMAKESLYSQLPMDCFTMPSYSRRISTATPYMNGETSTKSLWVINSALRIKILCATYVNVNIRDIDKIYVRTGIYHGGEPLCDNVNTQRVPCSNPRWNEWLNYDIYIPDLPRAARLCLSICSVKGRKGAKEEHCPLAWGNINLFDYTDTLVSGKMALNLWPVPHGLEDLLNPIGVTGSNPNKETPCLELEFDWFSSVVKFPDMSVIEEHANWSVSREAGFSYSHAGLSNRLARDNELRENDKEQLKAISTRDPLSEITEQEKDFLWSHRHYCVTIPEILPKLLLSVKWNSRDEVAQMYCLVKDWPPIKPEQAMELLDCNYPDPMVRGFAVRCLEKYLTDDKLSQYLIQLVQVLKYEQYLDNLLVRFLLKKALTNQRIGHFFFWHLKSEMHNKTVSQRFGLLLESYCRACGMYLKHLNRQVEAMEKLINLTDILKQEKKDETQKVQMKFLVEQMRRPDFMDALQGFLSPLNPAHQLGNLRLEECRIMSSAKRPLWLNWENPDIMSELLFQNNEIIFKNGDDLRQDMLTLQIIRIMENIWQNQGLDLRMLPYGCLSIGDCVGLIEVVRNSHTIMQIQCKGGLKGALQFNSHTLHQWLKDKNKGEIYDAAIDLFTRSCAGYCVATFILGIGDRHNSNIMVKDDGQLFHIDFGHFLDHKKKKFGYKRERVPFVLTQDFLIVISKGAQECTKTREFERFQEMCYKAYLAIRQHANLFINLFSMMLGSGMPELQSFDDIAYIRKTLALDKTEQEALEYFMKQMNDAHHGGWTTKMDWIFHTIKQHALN

A word on the solubility: it is the concentration that dissolves in the medium under given conditions. Usually IC50 stands for the concentration that inhibits the measured activity by half. `Cc1nn(C)cc1-n1c(=O)n(C)c2cnc3ccc(-c4cnc(F)c(N)c4)cc3c21` [Example 149.2, 8-(5-Amino-6-fluoro-pyridin-3-yl)-1-(1,3-dimethyl-1H-pyrazol-4-yl)-3-methyl-1,3-dihydro-imidazo[4,5-c]quinolin-2-one]: the solubility in the data set “Solubility at pH 6.8” came to 21 µg/mL (≈ 52.1 µM). In addition, the IC50 on PI3K alpha amounted to 7 nM.

On to `CCn1cc(-n2c(=O)n(C)c3cnc4ccc(-c5cnc(F)c(NC)c5)cc4c32)c(C)n1` [Example 150.1, 1-(1-Ethyl-3-methyl-1H-pyrazol-4-yl)-8-(6-fluoro-5-methylamino-pyridin-3-yl)-3-methyl-1,3-dihydro-imidazo[4,5-c]quinolin-2-one], for which the solubility in “Solubility at pH 6.8” turned out to be 5 µg/mL (≈ 11.6 µM). In addition, the IC50 on PI3K alpha stood at 7 nM.

`CCNc1cc(-c2ccc3ncc4c(c3c2)n(-c2c(C)nn(C)c2C)c(=O)n4C)cnc1Cl` [Example 153.1, 8-(6-Chloro-5-ethylamino-pyridin-3-yl)-3-methyl-1-(1,3,5-trimethyl-1H-pyrazol-4-yl)-1,3-dihydro-imidazo[4,5-c]quinolin-2-one]: in the data set “Solubility at pH 6.8”, the solubility came out at 6 µg/mL (≈ 13 µM). Moreover, at PI3K alpha, the IC50 is 10 nM.

Regarding `CCNc1cc(-c2ccc3ncc4c(c3c2)n(-c2cn(C(C)C)nc2C)c(=O)n4C)cnc1CO` [Example 155.3, 8-(5-Ethylamino-6-hydroxymethyl-pyridin-3-yl)-1-(1-isopropyl-3-methyl-1H-pyrazol-4-yl)-3-methyl-1,3-dihydro-imidazo[4,5-c]quinolin-2-one], the solubility in the data set “Solubility at pH 6.8” is over 472 µg/mL. Moreover, at PI3K alpha, the IC50 is 30 nM.

Regarding `CCNc1cc(-c2ccc3ncc4c(c3c2)n(-c2c(C)nn(C)c2C)c(=O)n4C)cnc1CO` [Example 155.4, 8-(5-Ethylamino-6-hydroxymethyl-pyridin-3-yl)-3-methyl-1-(1,3,5-trimethyl-1H-pyrazol-4-yl)-1,3-dihydro-imidazo[4,5-c]quinolin-2-one], the solubility in “Solubility at pH 6.8” was 62 µg/mL (≈ 136 µM). In addition, at PI3K alpha, the IC50 was determined as 125 nM.

For the compound `CCNc1cc(-c2ccc3ncc4c(c3c2)n(-c2cn(CC)nc2C)c(=O)n4C)cnc1COC` [Example 157, 8-(5-Ethylamino-6-methoxymethyl-pyridin-3-yl)-1-(1-ethyl-3-methyl-1H-pyrazol-4-yl)-3-methyl-1,3-dihydro-imidazo[4,5-c]quinolin-2-one], the solubility in the data set “Solubility at pH 6.8” was over 472 µg/mL. The IC50 on PI3K alpha amounted to 7 nM.

Take `CCNc1cc(-c2ccc3ncc4c(c3c2)n(-c2cn(C)nc2C)c(=O)n4C)cnc1CC` [Example 161, 1-(1,3-Dimethyl-1H-pyrazol-4-yl)-8-(6-ethyl-5-ethylamino-pyridin-3-yl)-3-methyl-1,3-dihydro-imidazo[4,5-c]quinolin-2-one]: the solubility in “Solubility at pH 6.8” was found to be 433 µg/mL (≈ 981 µM). For the same compound, the IC50 at PI3K alpha was 9 nM.

For `CCc1ncc(-c2ccc3ncc4c(c3c2)n(-c2cn(C)nc2C)c(=O)n4C)cc1NC(C)C` [Example 162, 1-(1,3-Dimethyl-1H-pyrazol-4-yl)-8-(6-ethyl-5-isopropylamino-pyridin-3-yl)-3-methyl-1,3-dihydro-imidazo[4,5-c]quinolin-2-one], the solubility in “Solubility at pH 6.8” was over 456 µg/mL. Further, on PI3K alpha, the 50% inhibitory concentration (IC50) came out at 8 nM.

Turning to `CCOCc1cc(-c2ccc3ncc4c(c3c2)n(-c2cn(C)nc2C)c(=O)n4C)cnc1N` [Example 166.1, 8-(6-Amino-5-ethoxymethyl-pyridin-3-yl)-1-(1,3-dimethyl-1H-pyrazol-4-yl)-3-methyl-1,3-dihydro-imidazo[4,5-c]quinolin-2-one], in the data set “Solubility at pH 6.8”, the solubility came out at 33 µg/mL (≈ 74.4 µM). The IC50 on PI3K alpha was determined as 9 nM.

Consider `Cn1cc(-n2c(=O)n(C)c3cnc4ccc(-c5cnc(N)c(CO)c5)cc4c32)c(Cl)n1` [Example 169.3, 8-(6-Amino-5-hydroxymethyl-pyridin-3-yl)-1-(3-chloro-1-methyl-1H-pyrazol-4-yl)-3-methyl-1,3-dihydro-imidazo[4,5-c]quinolin-2-one], for which, in “Solubility at pH 6.8”, the solubility was 10 µg/mL (≈ 22.9 µM). On PI3K alpha, the half-inhibitory concentration (IC50) came out at 5 nM.

Consider `Cc1nn(CCO)cc1-n1c(=O)n(C)c2cnc3ccc(-c4cncc(N5CCOCC5)c4)cc3c21` [Example 175.3, 1-[1-(2-Hydroxy-ethyl)-3-methyl-1H-pyrazol-4-yl]-3-methyl-8-(5-morpholin-4-yl-pyridin-3-yl)-1,3-dihydro-imidazo[4,5-c]quinolin-2-one], for which the solubility in “Solubility at pH 6.8” was over 486 µg/mL. Besides, the concentration for half-maximal inhibition (IC50) at PI3K alpha was determined as 44 nM.

With `CCN(C)c1cncc(-c2ccc3ncc4c(c3c2)n(-c2cn(C)nc2C)c(=O)n4C)c1` [Example 176, 1-(1,3-Dimethyl-1H-pyrazol-4-yl)-8-[5-(ethyl-methyl-amino)-pyridin-3-yl]-3-methyl-1,3-dihydro-imidazo[4,5-c]quinolin-2-one], the solubility in “Solubility at pH 6.8” is 59 µg/mL (≈ 138 µM). Also, on PI3K alpha, the IC50 turned out to be 17 nM.

Regarding `Cc1nn(C)cc1-n1c(=O)n(C)c2cnc3ccc(-c4cncc(OC(F)F)c4)cc3c21` [Example 183, 8-(5-Difluoromethoxy-pyridin-3-yl)-1-(1,3-dimethyl-1H-pyrazol-4-yl)-3-methyl-1,3-dihydro-imidazo[4,5-c]quinolin-2-one], the solubility in “Solubility at pH 6.8” is 84 µg/mL (≈ 192 µM). Moreover, on PI3K alpha, the IC50 came out at 3 nM.

Take `COc1cc(-c2ccc3ncc4c(c3c2)n(-c2cn(C)nc2C)c(=O)n4C)cnc1C` [Example 184, 1-(1,3-Dimethyl-1H-pyrazol-4-yl)-8-(5-methoxy-6-methyl-pyridin-3-yl)-3-methyl-1,3-dihydro-imidazo[4,5-c]quinolin-2-one]: the solubility in the data set “Solubility at pH 6.8” worked out at 8 µg/mL (≈ 19.3 µM). Also, the IC50 at PI3K alpha turned out to be 4 nM.

Consider `Cc1nn(CC(=O)N2CCC2)cc1-n1c(=O)n(C)c2cnc3ccc(-c4cncc(OC(C)C)c4)cc3c21` [Example 205, 1-[1-(2-Azetidin-1-yl-2-oxo-ethyl)-3-methyl-1H-pyrazol-4-yl]-8-(5-isopropoxy-pyridin-3-yl)-3-methyl-1,3-dihydro-imidazo[4,5-c]quinolin-2-one], for which, in “Solubility at pH 6.8”, the solubility is over 512 µg/mL. The IC50 at PI3K alpha worked out at 5 nM.

For `Cc1nn(C)cc1-n1c(=O)[nH]c2cnc3ccc(-c4cnc(N(C)C)nc4)cc3c21` [Example 207, 8-(2-Dimethylamino-pyrimidin-5-yl)-1-(1,3-dimethyl-1H-pyrazol-4-yl)-1,3-dihydro-imidazo[4,5-c]quinolin-2-one], the solubility in the data set “Solubility at pH 6.8” came out at 18 µg/mL (≈ 44.9 µM). Moreover, the IC50 at PI3K alpha is 14 nM.

With `CCNc1cc(-c2ccc3ncc4c(c3c2)n(-c2c(C)nn(CCO)c2C)c(=O)n4C)cnc1C` [Example 210, 8-(5-Ethylamino-6-methyl-pyridin-3-yl)-1-[1-(2-hydroxy-ethyl)-3,5-dimethyl-1H-pyrazol-4-yl]-3-methyl-1,3-dihydro-imidazo[4,5-c]quinolin-2-one], the solubility in “Solubility at pH 6.8” stood at 445 µg/mL (≈ 944 µM). Besides, the IC50 at PI3K alpha was 24 nM.

On to `CCOc1cc(-c2ccc3ncc4c(c3c2)n(-c2cn(CCO)nc2C)c(=O)n4C)cnc1C` [Example 211.2, 8-(5-Ethoxy-6-methyl-pyridin-3-yl)-1-[1-(2-hydroxy-ethyl)-3-methyl-1H-pyrazol-4-yl]-3-methyl-1,3-dihydro-imidazo[4,5-c]quinolin-2-one], for which the solubility in “Solubility at pH 6.8” is 3 µg/mL (≈ 6.54 µM). Also, the IC50 at PI3K alpha was 6 nM.

Take `Cc1nn(C)cc1-n1c(=O)n(C)c2cnc3ccc(-c4ccc(N5CC[C@@H](O)C5)nc4)cc3c21` [Example 212.1, 1-(1,3-Dimethyl-1H-pyrazol-4-yl)-8-[6-((R)-3-hydroxy-pyrrolidin-1-yl)-pyridin-3-yl]-3-methyl-1,3-dihydro-imidazo[4,5-c]quinolin-2-one]: the solubility in the data set “Solubility at pH 6.8” amounted to 55 µg/mL (≈ 121 µM). In addition, at PI3K alpha, the IC50 is 53 nM.
